Where two headings read alike, the source gives them in different places.
Test system: Hep3B cells (hepatocellular carcinoma cell line)
Assay: In vitro MTS cell viability assay (NCI-60 methodology), Hep3B
Assay type: cell-based
Details: Homo sapiens, 48 h, 2 days drug incubation, 50% reduction vs time zero, read-out: Hep3B LC50
Protocol: The cell viability measurement is based on the NCI-60 screening methodology (Nat. Rev. Cancer 6, 813-823, 2006). Briefly, cells are inoculated into 96-well plates at the optimal plating density. After 24 h, one of the two plates for Hep3B cell line is processed to determine a time zero cell viability (Tz) by MTS assay (Promega). Compounds are added over a 2-fold serial dilution to provide a total five drug concentrations plus DMSO control. Plates are incubated for a further 2 days, then measured cell viability by MTS assay [control growth (C) and test growth in the presence of drug at the five concentration levels (Ti)]. The LC50 is calculated from [(Ti−Tz)/Tz]×100=−50, which is the drug concentration resulting in a 50% reduction at the end of the drug treatment as compared to that at the beginning.
The compounds prepared in Tables 1-10 were tested in three in vitro assays, and the results are shown in Tables 1-10 for Hep3B and Table 11 for SW480 and NCI-H460 shown below. Herein, Hep3B refers to hepatocellular carcinoma cell line, SW480 refers to colon adenocarcinoma cell line, and NCI-H460 refers to human lung cancer cell line.
Shown in following Tables 1 to 10 are the structures and in vitro activities of exemplary compounds of formula (I).

For `COCCOc1ccc(-c2nc(NC(=O)c3ccc([N+](=O)[O-])s3)c3cnn(-c4ccc(C)cc4)c3n2)cn1` [Compound 6-12, N-(6-(6-(2-methoxyethoxy)pyridin-3-yl)-1-(p-tolyl)-1H-pyrazolo[3,4-d]pyrimidin-4-yl)-5-nitrothiophene-2-carboxamide], the LC50 (Table 6, MTS) was 260 nM.

Work on `O=C(Nc1nc(-c2cccc(F)c2)nc2c1cnn2-c1ccccc1)c1ccc([N+](=O)[O-])s1` [Compound 5-26, N-(6-(3-fluorophenyl)-1-phenyl-1H-pyrazolo[3,4-d]pyrimidin-4-yl)-5-nitrothiophene-2-carboxamide] yielded an LC50 (Table 5, MTS) of 410 nM.

`O=C(Nc1nc(-c2ccc(Cl)cc2)nc2c1cnn2-c1cccc(Cl)c1)c1ccc([N+](=O)[O-])s1` [Compound 6-38, N-(1-(3-chlorophenyl)-6-(4-chlorophenyl)-1H-pyrazolo[3,4-d]pyrimidin-4-yl)-5-nitrothiophene-2-carboxamide] gave an LC50 (Table 6, MTS) of 380 nM.

`CCOCCOCCOc1cc(Cl)ccc1-c1nc(NC(=O)c2ccc([N+](=O)[O-])s2)c2cnn(-c3ccc(F)cc3)c2n1` [Compound 6-140, N-(6-(4-chloro-2-(2-(2-ethoxyethoxy)ethoxy)phenyl)-1-(4-fluorophenyl)-1H-pyrazolo[3,4-d]pyrimidin-4-yl)-5-nitrothiophene-2-carboxamide] gave an LC50 (Table 6, MTS) of 4830 nM.

`Cc1csc2c(NC(=O)c3ccc([N+](=O)[O-])s3)nc(-c3ccc(C(F)(F)F)cc3F)nc12` [Compound 4-14, N-(2-(2-fluoro-4-(trifluoromethyl)phenyl)-7-methylthieno[3,2-d]pyrimidin-4-yl)-5-nitrothiophene-2-carboxamide] showed an LC50 (Table 4, MTS) of 1350 nM.

`COc1ccc(-c2nc(NC(=O)c3ccc([N+](=O)[O-])s3)c3cnn(-c4ccc(C(C)(C)C)cc4)c3n2)cn1` [Compound 6-82, N-(1-(4-(tert-butyl)phenyl)-6-(6-methoxypyridin-3-yl)-1H-pyrazolo[3,4-d]pyrimidin-4-yl)-5-nitrothiophene-2-carboxamide] gave an LC50 (Table 6, MTS) of 380 nM.

`CCOCCOc1ccc(-c2nc(NC(=O)c3ccc([N+](=O)[O-])s3)c3cnn(-c4ccccc4)c3n2)cn1` [Compound 5-55, N-(6-(6-(2-ethoxyethoxy)pyridin-3-yl)-1-phenyl-1H-pyrazolo[3,4-d]pyrimidin-4-yl)-5-nitrothiophene-2-carboxamide] was tested, and the LC50 (Table 5, MTS) was 490 nM.

`COCc1ccc(-c2nc(NC(=O)c3ccc([N+](=O)[O-])s3)c3cnn(C4CCCCC4)c3n2)cc1` [Compound 10-30, N-(1-cyclohexyl-6-(4-(methoxymethyl)phenyl)-1H-pyrazolo[3,4-d]pyrimidin-4-yl)-5-nitrothiophene-2-carboxamide] gave an LC50 (Table 10, MTS) of 840 nM.

`CC1(C)CCC(c2nc(NC(=O)c3ccc([N+](=O)[O-])s3)c3cnn(-c4ccc(F)cc4)c3n2)CC1` [Compound 6-145, N-(6-(4,4-dimethylcyclohexyl)-1-(4-fluorophenyl)-1H-pyrazolo[3,4-d]pyrimidin-4-yl)-5-nitrothiophene-2-carboxamide] showed an LC50 (Table 6, MTS) of 890 nM.

`O=C(Nc1nc(-c2ccc(F)cc2F)nc2c1cnn2-c1ccc(F)cc1)c1ccc([N+](=O)[O-])s1` [Compound 6-126] showed an LC50 (Table 6, MTS) of 350 nM.

Molecule `O=C(Nc1nc(-c2ccc(C(F)(F)F)cc2C(F)(F)F)nc2c1cnn2-c1cccc(Cl)c1)c1ccc([N+](=O)[O-])s1` [Compound 6-42] has an LC50 (Table 6, MTS) of 760 nM.

With `CC(C)(C)c1ccc(-n2ncc3c(NC(=O)c4ccc([N+](=O)[O-])s4)nc(N4CCCC4)nc32)cc1` [Compound 6-62, N-(1-(4-(tert-butyl)phenyl)-6-(pyrrolidin-1-yl)-1H-pyrazolo[3,4-d]pyrimidin-4-yl)-5-nitrothiophene-2-carboxamide] the LC50 (Table 6, MTS) was 710 nM.

In the case of `CC(C)(C)C(=O)N1CCC(n2ncc3c(NC(=O)c4ccc([N+](=O)[O-])s4)nc(-c4ccc(F)nc4)nc32)CC1` [Compound 9-8, N-(6-(6-fluoropyridin-3-yl)-1-(1-pivaloylpiperidin-4-yl)-1H-pyrazolo[3,4,d]pyrimidin-4-yl)-5-nitrothiophene-2-carboxamide], the LC50 (Table 9, MTS) is reported as 1900 nM.

Work on `Cc1ccc(-n2ncc3c(NC(=O)c4ccc([N+](=O)[O-])s4)nc(-c4ccc(C(F)(F)F)cc4)nc32)cc1` [Compound 6-8, 5-nitro-N-(1-(p-tolyl)-6-(4-(trifluoromethyl)phenyl)-1H-pyrazolo[3,4-d]pyrimidin-4-yl)thiophene-2-carboxamide] yielded an LC50 (Table 6, MTS) of 350 nM.

With `COC(=O)c1cccc(-c2nc(NC(=O)c3ccc([N+](=O)[O-])s3)c3cnn(C4CCCCC4)c3n2)c1` [Compound 10-31, methyl 3-(1-cyclohexyl-4-(5-nitrothiophene-2-carboxamido)-1H-pyrazolo[3,4-d]pyrimidin-6-yl)benzoate] the LC50 (Table 10, MTS) was 580 nM.

`Cc1noc(C)c1-c1nc(NC(=O)c2ccc([N+](=O)[O-])s2)c2cnn(-c3ccccc3)c2n1` [Compound 5-21, N-(6-(3,5-dimethylisoxazol-4-yl)-1-phenyl-1H-pyrazolo[3,4-d]pyrimidin-4-yl)-5-nitrothiophene-2-carboxamide] was tested, and the LC50 (Table 5, MTS) was 760 nM.

In the case of `COc1ccc(-n2ncc3c(NC(=O)c4ccc([N+](=O)[O-])s4)nc(C4CCC(C)(C)CC4)nc32)cc1` [Compound 6-30, N-(6-(4,4-dimethylcyclohexyl)-1-(4-methoxyphenyl)-1H-pyrazolo[3,4-d]pyrimidin-4-yl)-5-nitrothiophene-2-carboxamide], the LC50 (Table 6, MTS) is reported as 1320 nM.

For `O=C(Nc1nc(-c2ccc(N3CCOCC3)nc2)nc2c1cnn2-c1ccccc1)c1ccc([N+](=O)[O-])s1` [Compound 5-43, N-(6-(6-morpholinopyridin-3-yl)-1-phenyl-1H-pyrazolo[3,4-d]pyrimidin-4-yl)-5-nitrothiophene-2-carboxamide], the LC50 (Table 5, MTS) was 570 nM.

In the case of `O=C(Nc1nc(-c2ccc(F)cc2F)nc2c1cnn2C1CCCCC1)c1ccc([N+](=O)[O-])s1` [Compound 10-39], the LC50 (Table 10, MTS) is reported as 1240 nM.

`O=C(Nc1nc(-c2ccsc2)nc2c1cnn2C1CCCCC1)c1ccc([N+](=O)[O-])s1` [Compound 10-6, N-(1-cyclohexyl-6-(thiophen-3-yl)-1H-pyrazolo[3,4-d]pyrimidin-4-yl)-5-nitrothiophene-2-carboxamide] gave an LC50 (Table 10, MTS) of 1030 nM.

Molecule `O=C(Nc1nc(-c2ccc(C(F)(F)F)cc2)nc2c1cnn2C1CCCCC1)c1ccc([N+](=O)[O-])s1` [Compound 10-24, N-(1-cyclohexyl-6-(4-(trifluoromethyl)phenyl)-1H-pyrazolo[3,4-d]pyrimidin-4-yl)-5-nitrothiophene-2-carboxamide] has an LC50 (Table 10, MTS) of 640 nM.

`Cn1cc2nc(-c3ccc(C(C)(C)C)cc3)nc(NC(=O)c3ccc([N+](=O)[O-])s3)c2c1` [Compound 3-10, N-(2-(4-(tert-butyl)phenyl)4-methyl-6H-pyrrolo[3,4,d]pyrimidin-4-yl)-5-nitrothiophene-2-carboxamide] was tested, and the LC50 (Table 3, MTS) was 10000 nM.

For `Cn1ncc2c(-c3ccc(C(C)(C)C)cc3)nc(NC(=O)c3ccc([N+](=O)[O-])s3)nc21` [Compound 2-1, N-(4-(4-(tert-but)phenyl)-1-methyl-1H-pyrazolo[3,4-d]pyrimidin-6-yl)-5-nitrothiophene-2-carboxamide], the LC50 (Table 2, MTS) was 3130 nM.

Molecule `O=C(Nc1nc(-c2ccc3c(c2)OCO3)nc2c1cnn2C1CCCCC1)c1ccc([N+](=O)[O-])s1` [Compound 10-36, N-(6-(benzo[d][1,3]dioxol-5-yl)-1-cyclohexyl-1H-pyrazolo[3,4-d]pyrimidin-4-yl)-5-nitrothiophene-2-carboxamide] has an LC50 (Table 10, MTS) of 2120 nM.

— patent US20240150356A1, “Pyrimidine amide compounds and use thereof” (ALPHALA CO., LTD., priority 2019, published 2024)
